Experimental findings from ChEMBL document CHEMBL1141372, “Synthesis and pharmacophore modeling of naphthoquinone derivatives with cytotoxic activity in human promyelocytic leukemia HL-60 cell line” (J Med Chem, 2007) are described below.

pIC50: −log10 of the molar value. A value given as a limit tells only on which side of the number the result lay.

The nature of series [1]: Partition coefficient, log P of the compound. In kind it is physicochemical. Particulars: octanol/water.
Series [2] concerns HL-60. The series is described as follows: Cytotoxicity against human promyelocytic leukemia HL60 cell line by MTT assay. The series is classed as cell-based. A general note: Tetrazolium assays rely on reduction of a dye to a coloured formazan, in cell work by metabolically active cells.

Usually logP stands for a log measure of how a compound divides between an organic and an aqueous phase. One may read the pIC50 as −log10 of the IC50, conventionally taken in molar units. High values mean a low IC50, low ones a high IC50. With `CC(C)CCC1=C(O)C(=O)c2ccccc2C1=O`, the logP in series [1] (read-out: LogP) was 4.1. Also, the pIC50 in series [2] was 4.21.
For `CC(=O)OC1CC2=C(OC1(C)C)c1ccccc1C(=O)C2=O` (configuration not stated) the same measures were 3 and 6.17.
The corresponding values for `CC1(C)OC2=C(CC1Br)C(=O)C(=O)c1ccccc12` (configuration not stated) are 3.6 and 6.89.
For `CC1(C)OC2=C(C=C1Br)C(=O)C(=O)c1ccccc12` the same measures were 3.5 and 6.70.
Take `CC1(C)Oc2c(c3nccnc3c3ccccc23)CC1O` (configuration not stated): in series [1] (read-out: LogP), the logP was determined as 3.2. This compound showed a pIC50 in series [2] of 4.55.
The corresponding values for `CC1(C)OC2=C(C(=O)C(=O)c3ccccc32)C(O)C1Br` (configuration not stated) are 3.1 and 6.92.
In the case of `CC1(C)C[C@H](O)C2=C(O1)c1ccccc1C(=O)C2=O`, the log partition coefficient (logP) in series [1] (read-out: LogP) amounted to 2.2. The compound further gave a pIC50 in series [2] of 6.24.
For `CO[C@@H](C(=O)O[C@@H]1CC2=C(OC1(C)C)c1ccccc1C(=O)C2=O)c1ccccc1` the same measures were 5 and 6.59.
The corresponding values for `CC(C)=CCC1=C(O[Si](C)(C)C(C)(C)C)C(=O)c2ccccc2C1=O` are 7.3 and 4.94.
The corresponding values for `CC1(C)Oc2c(c3nc4c(nc3c3ccccc23)CCCC4)CC1O` (configuration not stated) are 4.8 and 4.87.
Turning to `CC1(C)OC2=C(CC1O)C(=O)c1ccccc1C2=O` (configuration not stated), the logP in series [1] (read-out: LogP) was 2.7. The same compound showed a pIC50 in series [2] of 5.87.
For `CC1(C)OC2=C(CC1Br)C(=O)c1ccccc1C2=O` (configuration not stated) the same measures were 4.1 and 5.87.
Turning to `COc1cc(C(=O)OC2=C(CC=C(C)C)C(=O)c3ccccc3C2=O)cc(OC)c1OC`, the logP in series [1] (read-out: LogP) turned out to be 6.3. The compound also had a pIC50 in series [2] of 5.09.
Consider `CC(C)(O)C1CC2=C(O1)c1ccccc1C(=O)C2=O` (configuration not stated), for which, in series [1] (read-out: LogP), the logP is 1.6. In series [2], this compound gave a pIC50 of 5.71.
The corresponding values for `CC(=O)OC1=C(CC=C(C)C)C(=O)c2ccccc2C1=O` are 4.5 and 5.35.
For `CC(=O)OC1=C(CC(O)C(C)(C)O)C(=O)c2ccccc2C1=O` (configuration not stated) the same measures were 1.8 and 4.32.
For `CC(C)CCC1=C(O)C(=O)C2=C(CCCC2)C1=O` the same measures were 4.2 and 4.46.
As to `COCOC1=C(CCC(C)C)C(=O)c2ccccc2C1=O`, the logP in series [1] (read-out: LogP) was 4.4. The compound further showed a negative logarithm of the IC50 (pIC50) in series [2] of 4.27.
With `CC(C)=CCC1=C2NC3CCCCC3N=C2c2ccccc2C1=O` (configuration not stated), the logP in series [1] (read-out: LogP) came out at 4.2. This compound also gave a pIC50 in series [2] of 4.81.
For `CC(=O)OC1=C(CC2OC2(C)C)C(=O)c2ccccc2C1=O` (configuration not stated) the same measures were 3 and 5.72.
For the compound `CC1(C)Oc2c(c3nccnc3c3ccccc23)CC1Br` (configuration not stated), the logP in series [1] (read-out: LogP) worked out at 4.8. The compound further had a pIC50 in series [2] of 4.62.
On to `CC(C)(O)C1Cc2c(c3ccccc3c3nccnc23)O1` (configuration not stated), for which, in series [1] (read-out: LogP), the logP stood at 2.5. Further, in series [2], the pIC50 was 4.36.
As to `CCOC1CCC2=C(O1)C(=O)c1ccccc1C2=O` (configuration not stated), the logP in series [1] (read-out: LogP) was found to be 2.8. The compound further had a pIC50 in series [2] of 4.53.
The corresponding values for `CC(=O)OC1=C(CC(Br)C(C)(C)Br)C(=O)c2ccccc2C1=O` (configuration not stated) are 5.1 and 5.65.
The corresponding values for `CC1(C)CCc2c(c3ccccc3c3nc4c(nc23)CCCC4)O1` are 6.4 and not above 4.00.
For `CO[C@@H](C(=O)O[C@H]1CC2=C(OC1(C)C)c1ccccc1C(=O)C2=O)c1ccccc1` the same measures were 5 and 6.96.
Consider `CC(C)(O)C1CC(=O)c2nccnc2-c2ccccc2C(=O)O1` (configuration not stated), for which the logP in series [1] (read-out: LogP) came to 2.4. For the same compound, the pIC50 in series [2] was less than 4.00.
For `CC1(C)CCC(=O)c2nccnc2-c2ccccc2C(=O)O1` the same measures were 3.9 and 4.33.
As to `CC(C)C(=O)OC1CC2=C(OC1(C)C)c1ccccc1C(=O)C2=O` (configuration not stated), in series [1] (read-out: LogP), the logP amounted to 3.8. The pIC50 in series [2] was 6.62.
The corresponding values for `O=C1C2=C(OC(c3ccccc3)C2)C(=O)c2ccccc21` (configuration not stated) are 3.7 and 5.58.
For `CC1(C)CCC2=C(O1)c1ccccc1/C(=N/O)C2=O` the same measures were 4.6 and 5.49.
The corresponding values for `Cc1ccc(CC2=C(O)C(=O)c3ccccc3C2=O)o1` are 3.6 and 4.17.
On to `O=C1C2=C(OC(c3ccccc3)CC2)C(=O)c2ccccc21` (configuration not stated), for which the logP in series [1] (read-out: LogP) was 4.7. The compound also gave a pIC50 in series [2] of 4.64.
The corresponding values for `CC(C)(O)C1Cc2c(O)c([N+](=O)[O-])c3ccccc3c2O1` (configuration not stated) are 2.7 and 4.33.
For `CC(C)(O[N+](=O)[O-])C1CC2=C(O1)C(=O)c1ccccc1C2=O` (configuration not stated) the same measures were 3.4 and 5.91.
With `CC(=O)OC1=C(CC(Br)C(C)(C)O)C(=O)c2ccccc2C1=O` (configuration not stated), the logP in series [1] (read-out: LogP) came out at 3.5. In addition, the pIC50 in series [2] was 6.28.
For `CC(C)=CC1=C(O)C(=O)c2ccccc2C1=O`, in series [1] (read-out: LogP), the logP was 3.2. In series [2], this compound gave a pIC50 of 4.56.
For `CC(C)(O)C1CC2=C(O1)C(=O)c1ccccc1C2=O` (configuration not stated) the same measures were 2 and 5.73.
For `CCCCCCCCCCCC(=O)OC1=C(CC=C(C)C)C(=O)c2ccccc2C1=O`, the logP in series [1] amounted to 9.9. Also, in series [2], the pIC50 is 4.58.
With `CC1(C)C[C@@H](O)C2=C(O1)c1ccccc1C(=O)C2=O`, in series [1] (read-out: LogP), the logP stood at 2.2. Besides, the pIC50 in series [2] is 6.26.
The corresponding values for `CC(=O)OC1Cc2c(c3ccccc3c3nc4c(nc23)CCCC4)OC1(C)C` (configuration not stated) are 5.7 and 4.62.
For `CC(C)(Br)C1CC2=C(O1)c1ccccc1C(=O)C2=O` (configuration not stated) the same measures were 3.2 and 6.15.
`CC(C)(O)C1Cc2c(c3ccccc3c3nc4c(nc23)CCCC4)O1` (configuration not stated): the logP in series [1] (read-out: LogP) came out at 4.2. Moreover, the pIC50 in series [2] was 4.50.
The corresponding values for `CCCCCCCCCCCC(=O)OC1CC2=C(OC1(C)C)c1ccccc1C(=O)C2=O` (configuration not stated) are 8.3 and 6.59.
The corresponding values for `CC1(C)CCc2c(c3ccccc3c3nccnc23)O1` are 4.7 and 4.63.
As for `CC1(C)OC2=C(CC1OC(=O)c1ccc(C#N)cc1)C(=O)C(=O)c1ccccc12` (racemic), the logP in series [1] (read-out: LogP) turned out to be 4.7. In addition, the pIC50 in series [2] was 6.89.
Turning to `CC1(C)OC2=C(CC1OC(=O)c1ccc(Br)cc1)C(=O)C(=O)c1ccccc12` (racemic), the logP in series [1] (read-out: LogP) turned out to be 5.8. The same compound had a pIC50 in series [2] of 6.35.
For `CC1(C)CCC2=C(O1)C(=O)c1ccccc1C2=O` [ALPHA-LAPACHONE] the same measures were 3.5 and 4.87.
The corresponding values for `C=C(C)C1CC2=C(O1)C(=O)c1ccccc1C2=O` (stereo not drawn) [DEHYDROISO-ALPHA-LAPACHONE] are 3.4 and 5.84.
The corresponding values for `CC(C)=CCC1=C(O)C(=O)c2ccccc2C1=O` [LAPACHOL] are 4.1 and 5.50.
Take `CC1(C)CCC2=C(O1)c1ccccc1C(=O)C2=O` [LAPACHONE]: the lipophilicity (logP) in series [1] (read-out: LogP) amounted to 3.2. The pIC50 in series [2] is 6.57.
